Patent publication US20220175774A1, “Bioavailable Oral Dosage Form Of Tyrosine-Kinase Inhibitor” (Alembic Pharmaceuticals Limited, priority 2020, published 2022)

Experiment: Stability study according to ICH guidelines
Assay type: physicochemical
Protocol: The total impurity content is measured after synthesis of the compound and compared with the measured total impurity content after storage for a designated period of time. […] Stability studies were conducted, according to the ICH guidelines, for 6 months at accelerated condition (40° C./75% RH) and at room temperature.

total impurity content after storage (about 6 months at about 40° c. and about 75% RH): less than 4%
total impurity content (at 0 days): less than 3%
Compound: Cc1nc(Nc2ncc(C(=O)Nc3c(C)cccc3Cl)s2)cc(N2CCN(CCO)CC2)n1 [N-(2-chloro-6-methylphenyl)-2-[[6-[4-(2-hydroxyethyl)-1-piperazinyl]-2-methyl-4-pyrimidinyl]amino]-5-thiazolecarboxamide]
